Data reported in patent US7968542B2, “Thiophene compounds and thrombopoietin receptor activators” (Nissan Chemical Industries, Ltd., priority 2005, dated 2011).

system: Human bone marrow CD34+ cells; assay: Megakaryocyte colony stimulating activity (megakaryocyte colony forming method); type: cell-based; settings: drug concentration 0.1 μg/mL, 11 days
Protocol: The action of the compounds of Synthetic Examples 1 to 43 of the present invention and Reference Synthetic Examples 29 and 30 on the proliferation, differentiation and maturation of megakaryocyte cells was measured by the megakaryocyte colony forming method using human bone marrow cells. Human bone marrow CD34^+ cells (Cambrex Bio Science Walkersville) were incubated on 2-well chamber slide for 11 days in a CO2 incubator (5% CO2, 37° C.) using MegaCult™-C (StemCell Technologies) containing 0.1% (v/v) of the compounds of Synthetic Examples dissolved in dimethyl sulfoxide. After dehydration and fixation, the cells were stained with an anti-glycoprotein IIb/IIIa antibody in accordance with the instruction by the manufacturer. The colonies consisting of at least 8 stained megakaryocyte cells in each well were counted under a microscope. The megakaryocyte colony counts in at least 2 wells were averaged.

Question: Which Megakaryocyte colony count does the source give for `CC(=NNC(=O)c1ccc(C(=O)NCCCc2ccncc2)s1)c1csc(-c2ccc(Cl)c(Cl)c2)c1O` [Synthetic Ex. 40, 5-{1-[5-(3,4-dichlorophenyl)-4-hydroxythiophen-3-yl]ethylidenehydrazinocarbonyl}thiophene-2-carboxylic acid 3-(pyridin-4-yl)propylamide] here?
Answer: 70

Question: With `CC(=NNC(=O)c1ccc(C(=O)N2CCC(O)C2)s1)c1csc(-c2ccc(Cl)c(Cl)c2)c1O` (centres unmarked) [Synthetic Ex. 42, 5-(3-hydroxypyrrolidine-1-carbonyl)thiophene-2-carboxylic acid {1-[5-(3,4-dichlorophenyl)-4-hydroxythiophen-3-yl]ethylidene}hydrazide] as the compound, how does the Megakaryocyte colony count read?
Answer: 90

Question: How did the Megakaryocyte colony count turn out when `CC(=NNC(=O)c1ccc(C(=O)NCc2cc[n+]([O-])cc2)s1)c1csc(-c2ccc(Cl)c(Cl)c2)c1O` [Synthetic Ex. 39, 4-[{5-(2-[1-{5-(3,4-dichlorophenyl)-4-hydroxythiophen-3-yl}ethylidene]hydrazinocarbonyl)thiophene-2-carboxamido}methyl]pyridine 1-oxide] was run?
Answer: 86

Question: `CC(=NNC(=O)c1ccc(C(=O)N(C)Cc2ccccn2)s1)c1csc(-c2ccc(C(F)(F)F)cc2)c1O.[K]` [Synthetic Ex. 13, 5-{1-[5-(4-trifluoromethylphenyl)-4-hydroxythiophen-3-yl]ethylidenehydrazinocarbonyl}thiophene-2-carboxylic acid methyl-2-picolylamide potassium salt] was tested. Which Megakaryocyte colony count did it give?
Answer: 61

Question: How did the Megakaryocyte colony count turn out when `CC(=NNC(=O)c1ccc(C(=O)NC(C)C)s1)c1csc(-c2ccc(Br)cc2)c1O` [Synthetic Ex. 21, 5-{1-[5-(4-bromophenyl)-4-hydroxythiophen-3-yl]ethylidenehydrazinocarbonyl}thiophene-2-carboxylic acid isopropylamide] was run?
Answer: 85

Question: With `CC(=NNC(=O)c1ccc(C(=O)NCc2ccccn2)s1)c1csc(-c2ccc(Cl)c(Cl)c2)c1O` [Synthetic Ex. 29, 5-{1-[5-(3,4-dichlorophenyl)-4-hydroxythiophen-3-yl]ethylidenehydrazinocarbonyl}thiophene-2-carboxylic acid 2-picolylamide] as the compound, how does the Megakaryocyte colony count read?
Answer: 62

Question: With `CC(=NNC(=O)c1ccc(C(=O)NCCc2ccncc2)s1)c1csc(-c2ccc(Cl)c(Cl)c2)c1O` [Synthetic Ex. 31, 5-{1-[5-(3,4-dichlorophenyl)-4-hydroxythiophen-3-yl]ethylidenehydrazinocarbonyl}thiophene-2-carboxylic acid 2-(pyridin-4-yl)ethylamide] as the compound, how does the Megakaryocyte colony count read?
Answer: 70

Question: Which Megakaryocyte colony count does the source give for `CC(=NNC(=O)c1ccc(C(=O)NCc2cc(C)on2)s1)c1csc(-c2ccc(Cl)c(Cl)c2)c1O` [Synthetic Ex. 33, 5-{1-[5-(3,4-dichlorophenyl)-4-hydroxythiophen-3-yl]ethylidenehydrazinocarbonyl}thiophene-2-carboxylic acid (5-methylisoxazol-3-ylmethyl)amide] here?
Answer: 53

Question: Which Megakaryocyte colony count does the source give for `CC(=NNC(=O)c1ccc(C(=O)N2CCCC2)s1)c1csc(-c2ccc(C(F)(F)F)cc2)c1O.[K]` [Synthetic Ex. 10, 5-(pyrrolidine-1-carbonyl)thiophene-2-carboxylic acid {1-[5-(4-trifluoromethylphenyl)-4-hydroxythiophen-3-yl]ethylidene}hydrazide potassium salt] here?
Answer: 105

Question: How did the Megakaryocyte colony count turn out when `CC(=NNC(=O)c1ccc(C(=O)NCc2cnc(C)cn2)s1)c1csc(-c2ccc(Cl)c(Cl)c2)c1O` [Synthetic Ex. 34, 5-{1-[5-(3,4-dichlorophenyl)-4-hydroxythiophen-3-yl]ethylidenehydrazinocarbonyl}thiophene-2-carboxylic acid (5-methylpyrazin-2-ylmethyl)amide] was run?
Answer: 50

Question: How did the Megakaryocyte colony count turn out when `C/C(=N\NC(=O)c1ccc(C(=O)NCc2ccccn2)s1)c1csc(-c2ccc(OC(F)(F)F)cc2)c1O` [Synthetic Ex. 22] was run?
Answer: 96

Question: `CC(=NNC(=O)c1ccc(C(=O)N2CCCC2)s1)c1csc(-c2ccc(Cl)c(Cl)c2)c1O.[K]` [Synthetic Ex. 4, 5-(pyrrolidine-1-carbonyl)thiophene-2-carboxylic acid {1-[5-(3,4-dichlorophenyl)-4-hydroxythiophen-3-yl]ethylidene}hydrazide potassium salt] was tested. Which Megakaryocyte colony count did it give?
Answer: 84

Question: With `CCN(CC)C(=O)c1ccc(C(=O)NN=C(C)c2csc(-c3ccc(C(F)(F)F)cc3)c2O)s1` [Synthetic Ex. 8, 5-{1-[5-(4-trifluoromethylphenyl)-4-hydroxythiophen-3-yl]ethylidenehydrazinocarbonyl}thiophene-2-carboxylic acid diethylamide] as the compound, how does the Megakaryocyte colony count read?
Answer: 147

Question: With `CC(=NNC(=O)c1ccc(C(=O)NCc2cncn2C)s1)c1csc(-c2ccc(C(F)(F)F)cc2)c1O` [Synthetic Ex. 41, 5-{1-[5-(4-trifluoromethylphenyl)-4-hydroxythiophen-3-yl]ethylidenehydrazinocarbonyl}thiophene-2-carboxylic acid (1-methyl-1H-imidazol-5-ylmethyl)amide] as the compound, how does the Megakaryocyte colony count read?
Answer: 41

Question: With `COCCNC(=O)c1ccc(C(=O)NN=C(C)c2csc(-c3ccc(Cl)c(Cl)c3)c2O)s1.[K]` [Synthetic Ex. 6, 5-{1-[5-(3,4-dichlorophenyl)-4-hydroxythiophen-3-yl]ethylidenehydrazinocarbonyl}thiophene-2-carboxylic acid 2-methoxyethylamide potassium salt] as the compound, how does the Megakaryocyte colony count read?
Answer: 115

Question: For `CC(=NNC(=O)c1ccc(C(=O)NCc2ccnn2C)s1)c1csc(-c2ccc(Cl)c(Cl)c2)c1O` [Synthetic Ex. 32, 5-{1-[5-(3,4-dichlorophenyl)-4-hydroxythiophen-3-yl]ethylidenehydrazinocarbonyl}thiophene-2-carboxylic acid (1-methyl-1H-pyrazol-5-ylmethyl)amide], which Megakaryocyte colony count is on record?
Answer: 55

Question: With `CC(=NNC(=O)c1ccc(C(=O)N2CCC(O)C2)s1)c1csc(-c2ccc(C(F)(F)F)cc2)c1O` (centres unmarked) [Synthetic Ex. 43, 5-(3-hydroxypyrrolidine-1-carbonyl)thiophene-2-carboxylic acid {1-[5-(4-trifluoromethylphenyl)-4-hydroxythiophen-3-yl]ethylidene}hydrazide] as the compound, how does the Megakaryocyte colony count read?
Answer: 109

same assay, conditions: drug concentration 1 μg/mL, 11 days

Question: How did the Megakaryocyte colony count turn out when `CCN(CC)C(=O)c1ccc(C(=O)NN=C(C)c2csc(-c3ccc(Cl)c(Cl)c3)c2O)s1.[K]` [Synthetic Ex. 3, 5-{1-[5-(3,4-dichlorophenyl)-4-hydroxythiophen-3-yl]ethylidenehydrazinocarbonyl}thiophene-2-carboxylic acid diethylamide potassium salt] was run?
Answer: 348

Question: `CC(=NNC(=O)c1ccc(C(=O)NC(C)C)s1)c1csc(-c2ccc(C)c(C)c2)c1O` [Synthetic Ex. 28, 5-{1-[5-(3,4-dimethylphenyl)-4-hydroxythiophen-3-yl]ethylidenehydrazinocarbonyl]thiophene-2-carboxylic acid isopropylamide] was tested. Which Megakaryocyte colony count did it give?
Answer: 105

Question: Which Megakaryocyte colony count does the source give for `CC(=NNC(=O)c1ccc(C(=O)NCc2cccnc2)s1)c1csc(-c2ccc(Cl)cc2)c1O` [Synthetic Ex. 26, 5-{1-[5-(4-chlorophenyl)-4-hydroxythiophen-3-yl]ethylidenehydrazinocarbonyl}thiophene-2-carboxylic acid 3-picolylamide] here?
Answer: 182

Question: With `CNC(=O)c1ccc(C(=O)NN=C(C)c2csc(-c3ccc(Br)cc3)c2O)s1` [Synthetic Ex. 20, 5-{1-[5-(4-bromophenyl)-4-hydroxythiophen-3-yl]ethylidenehydrazinocarbonyl}thiophene-2-carboxylic acid methylamide] as the compound, how does the Megakaryocyte colony count read?
Answer: 185

Question: For `CC(=NNC(=O)c1ccc(C(=O)NCc2ccco2)s1)c1csc(-c2ccc(Br)cc2)c1O` [Synthetic Ex. 19, 5-{1-[5-(4-bromophenyl)-4-hydroxythiophen-3-yl]ethylidenehydrazinocarbonyl}thiophene-2-carboxylic acid furan-2-ylmethylamide], which Megakaryocyte colony count is on record?
Answer: 171

Question: `CC(=NNC(=O)c1ccc(C(=O)NCc2ccccn2)s1)c1csc(-c2ccc(Cl)cc2)c1O` [Synthetic Ex. 25, 5-{1-[5-(4-chlorophenyl)-4-hydroxythiophen-3-yl]ethylidenehydrazinocarbonyl]thiophene-2-carboxylic acid 2-picolylamide] was tested. Which Megakaryocyte colony count did it give?
Answer: 118

Question: Which Megakaryocyte colony count does the source give for `CC(=NNC(=O)c1ccc(C(=O)NCCc2ccncc2)s1)c1csc(-c2ccc(Cl)c(Cl)c2)c1O` [Synthetic Ex. 31, 5-{1-[5-(3,4-dichlorophenyl)-4-hydroxythiophen-3-yl]ethylidenehydrazinocarbonyl}thiophene-2-carboxylic acid 2-(pyridin-4-yl)ethylamide] here?
Answer: 136

Question: With `CC(=NNC(=O)c1ccc(C(=O)NCc2cccnc2)s1)c1csc(-c2ccc(Br)cc2)c1O` [Synthetic Ex. 17, 5-{1-[5-(4-bromophenyl)-4-hydroxythiophen-3-yl]ethylidenehydrazinocarbonyl}thiophene-2-carboxylic acid 3-picolylamide] as the compound, how does the Megakaryocyte colony count read?
Answer: 146

Question: Which Megakaryocyte colony count does the source give for `CC(=NNC(=O)c1ccc(C(=O)N2CCCC2)s1)c1csc(-c2ccc(C(F)(F)F)cc2)c1O.[K]` [Synthetic Ex. 10, 5-(pyrrolidine-1-carbonyl)thiophene-2-carboxylic acid {1-[5-(4-trifluoromethylphenyl)-4-hydroxythiophen-3-yl]ethylidene}hydrazide potassium salt] here?
Answer: 208

Question: Which Megakaryocyte colony count does the source give for `CC(=NNC(=O)c1ccc(C(=O)N2CCN(C(C)C)CC2)s1)c1csc(-c2ccc(Cl)c(Cl)c2)c1O` [Synthetic Ex. 1, 5-(4-isopropylpiperazine-1-carbonyl)thiophene-2-carboxylic acid {1-[5-(3,4-dichlorophenyl)-4-hydroxythiophen-3-yl]ethylidene}hydrazide] here?
Answer: 154

Question: How did the Megakaryocyte colony count turn out when `CC(=NNC(=O)c1ccc(C(=O)N2CCCC2)s1)c1csc(-c2ccc(Cl)c(Cl)c2)c1O.[K]` [Synthetic Ex. 4, 5-(pyrrolidine-1-carbonyl)thiophene-2-carboxylic acid {1-[5-(3,4-dichlorophenyl)-4-hydroxythiophen-3-yl]ethylidene}hydrazide potassium salt] was run?
Answer: 148

Question: For `CCN(CC)C(=O)c1ccc(C(=O)NN=C(C)c2csc(-c3ccc(C(F)(F)F)cc3)c2O)s1` [Synthetic Ex. 8, 5-{1-[5-(4-trifluoromethylphenyl)-4-hydroxythiophen-3-yl]ethylidenehydrazinocarbonyl}thiophene-2-carboxylic acid diethylamide], which Megakaryocyte colony count is on record?
Answer: 227

Question: `COCCNC(=O)c1ccc(C(=O)NN=C(C)c2csc(-c3ccc(Cl)c(Cl)c3)c2O)s1.[K]` [Synthetic Ex. 6, 5-{1-[5-(3,4-dichlorophenyl)-4-hydroxythiophen-3-yl]ethylidenehydrazinocarbonyl}thiophene-2-carboxylic acid 2-methoxyethylamide potassium salt] was tested. Which Megakaryocyte colony count did it give?
Answer: 151

Question: `CC(=NNC(=O)c1ccc(C(=O)N(C)C)s1)c1csc(-c2ccc(Cl)c(Cl)c2)c1O.[K]` [Synthetic Ex. 5, 5-{1-[5-(3,4-dichlorophenyl)-4-hydroxythiophen-3-yl]ethylidenehydrazinocarbonyl}thiophene-2-carboxylic acid dimethylamide potassium salt] was tested. Which Megakaryocyte colony count did it give?
Answer: 274

Question: For `CC(=NNC(=O)c1ccc(C(=O)NC(C)C)s1)c1csc(-c2ccc(C(F)(F)F)cc2)c1O` [Synthetic Ex. 23, 5-{1-[5-(4-trifluoromethylphenyl)-4-hydroxythiophen-3-yl]ethylidenehydrazinocarbonyl}thiophene-2-carboxylic acid isopropylamide], which Megakaryocyte colony count is on record?
Answer: 134
